Test results published in patent publication US20100047221A1, “COMPOSITIONS COMPRISING PYRUVATE ALKYL ESTERS AND USES THEREOF” (priority 2006, published 2010).

Assays:
[1] = Post-surgical oral ingestion by a patient with gastrointestinal inflammation; format: in vivo, human; settings: about 3x500 mL per day
Protocol: The patient had developed gastrointestinal inflammation and could not tolerate food by mouth for several days post-operative. Furthermore, bowel movements were frequent, watery and bloody, and were accompanied by lower abdominal pain. The patient self administered oral ethylpyruvate (about 3×500 mL per day daily for 1 week of an ethylpyruvate solution in commercial bottled spring water at 0.06 weight-percent ethylpyruvate). Within 3 hours of the initial dosing, persistent pain, hyperactive bowel and diarrhea resolved. The patient additionally reported an improved mood following oral ingestion of ethylpyruvate.

[2] = Mood enhancement before and after ingestion in the taste assessment experiment; format: in vivo, human; settings: about 1 weight-percent
Protocol: (§1) A panel of 10 individuals ingested a liquid composition (about 30 ml) at room temperature comprising ethylpyruvate (about 1 weight-percent) to provide a taste assessment. The panel was additionally provided a corresponding liquid composition of methylpyruvate (i.e., methyl ester of pyruvic acid) for comparative tasting. […] Without wishing to be bound by theory, it is believed that the sour taste associated with methylpyruvate results from hydrolysis of methylpyruvate within the sample to pyruvic acid, with the associated source taste of an acid. In contrast, the taste associated with ethylpyruvate appears to reflect a lack of hydrolysis to pyruvic acid in the sample.
In the taste assessment experiment (Example 2), mood was assessed before and after ingestion of the liquid composition comprising ethylpyruvate. […] This mood enhancement commenced at between 5 and 15 minutes and lasted over 6 hours. In one case, the individual stated that the usual afternoon cup of coffee would not be necessary that day due to the ingestion of the composition.

[3] = Gastric reflux (heartburn) in the taste assessment experiment; format: in vivo, human; settings: panel of 10 individuals; about 30 ml liquid composition, oral
Protocol: as §1
In the taste assessment experiment (Example 2), gastric reflux (i.e., “heartburn”) was a considerable problem (i.e., 5 of 10 individuals reporting such) with methylpyruvate, but none reporting similar reaction with ethylpyruvate.

[4] = Stability in solution at room temperature, judged by appearance and taste; format: physicochemical; settings: room temperature (about 50 to 90 degrees F.); judged by appearance (color) and taste
Source text: Without wishing to be bound by theory, it is believed that methyl esters of pyruvic acid are more susceptible to hydrolysis in aqueous solution than are corresponding ethyl esters, which hydrolysis results in the production of pyruvic acid. Pyruvic acid, and the anion thereof, can then react by mechanisms well known in the art, to form a plethora of higher molecular compounds.

[5] = Athlete oral ingestion before and during daily workouts; format: in vivo, human; settings: 12 athletes, 4x500 mL per day, about 0.06 weight-percent in water, four days
Protocol: A group of 12 athletes (19-22 years of age) self-administered oral ethylpyruvate in solution (4×500 mL ingested per day of a solution of about 0.06 weight-percent ethylpyruvate in water) before and during daily workouts (approximately 2 hours duration) for four days. The athletes having ingested oral ethylpyruvate reported less fatigue at the end of each workout, and similar favorable reports continued each day for the four days of practice.

individuals reporting gastric reflux (heartburn) [3]: none | stability in solution versus the methyl ester of pyruvic acid [4]: higher stability
SMILES: CCOC(=O)C(C)=O [ethylpyruvate]
time from initial dosing to resolution of persistent pain, hyperactive bowel and diarrhea ([1]; one patient after surgery and radiation for gastrointestinal carcinoma, 0.06 weight-percent in spring water): ≤ 3 h | mood reported by the patient ([1]; one patient, 0.06 weight-percent, 1 week): improved mood | duration of mood enhancement ([2]; after ingestion of about 30 ml): over 6 hours | mood after ingestion ([2]; each of 10 individuals, about 30 ml, oral): increase in feelings of well-being and energy | performance in high-activity training regimens (wind sprints) versus sessions prior to ingestion ([5]; each subject): better performance | fatigue at the end of each workout [5]: less fatigue
